This note sets out measurements from patent US20250122193A1, “NOVEL PYRIDOCARBAZOLIUM COMPOUNDS AND MEDICAL USES THEREOF” (MyCural Therapeutics, priority 2021, published 2025).

Series [1] concerns primary patient derived AML cell cultures and established AML/CML cell lines. In words: primary AML cells and AML/CML cell lines, WST-1 assay. (In general: Tetrazolium dyes change colour on reduction, which living cells bring about.)
Description: C) Primary AML cells from patient biopsies where cultured for 72 hours in presence of MYCMI-7 at indicated doses cell growth was monitored by the WST-1 assay. One representative biological experiment out of at three, performed in triplicates is shown.
Cell growth and viability assays: Cell growth and viability was estimated in triplicates with WST-1 (Roche) or Resazurin sodium salt (Sigma-Aldrich) assays in medium at 37° C. and 5% CO2 for 2 hours after which absorbance or fluorescence, respectively, was measured with an Omega Fluostar (BMG Labtech) in a 96 well plate format. Cell viability by the Cyt60 assay was carried out as in manufacturers' protocol.
Series [2] deals with immortalized Rat1 fibroblasts with different MYC status. Description: apoptosis assay (Cell Death Detection ELISA), Rat1 fibroblasts. In kind it is cell-based, rat. Conditions: 24 hours. As for the experimental part:
FIG. 4: MYCMI-7 induces apoptosis in malignant cells and growth arrest in normal cells. A) Cell cycle distribution analysis by flow cytometry of MYC-regulated P493-6 cells and normal rat embryo fibroblasts (REFs). Left panel, P493-6 synchronized in G0 by 24 hours treatment of […] doxycycline. Doxycycline was removed and the cells were harvested 48 hours after the addition of fresh medium containing DMSO or 5 μM MYCMI-7. Right panel, flow cytometry analysis of normal REFs treated with DMSO or 5 μM MYCMI-7. B) Apoptosis assay using the Cell Death Detection ELISA^plus kit. Left panel, immortalized Rat1 fibroblasts with different MYC status after 24 hours of 5 μM MYCMI-7 treatment, middle panel and right panels, normal REFs and normal peripheral blood lymphocytes, respectively, after 24 and 48 hours of 5 μM MYCMI-7 treatment. C) Measurement of viability and apoptosis by Apo-Tox Glo Triplex assay in A375 melanoma cells after 3 days of treatment with MYCMI-7 with the indicated concentrations. […] E) NHDFs treated with 3 μM MYCMI-7 for 72 hrs. Viability was measured by trypan blue exclusion assay. F) Cell growth measured with Cyt62 assay of primary normal human epidermal melanocytes (NHEM) treated for 72 hours with MYCMI-7, G) Viability measured by trypan blue exclusion assay of NHEM after treatment for 72 hours with MYCMI-7.
(In general: An ELISA detects its analyte on a solid surface through an enzyme-linked reagent.)

In series [3] the test system is normal rat embryo fibroblasts (REFs). Description: cell cycle distribution by flow cytometry, normal REFs. In kind it is cell-based. Conditions: 5 μM. As for the experimental part: FIG. 4: MYCMI-7 induces apoptosis in malignant cells and growth arrest in normal cells. A) Cell cycle distribution analysis by flow cytometry of MYC-regulated P493-6 cells and normal rat embryo fibroblasts (REFs). Left panel, P493-6 synchronized in G0 by 24 hours treatment of […] doxycycline. Doxycycline was removed and the cells were harvested 48 hours after the addition of fresh medium containing DMSO or 5 μM MYCMI-7. Right panel, flow cytometry analysis of normal REFs treated with DMSO or 5 μM MYCMI-7. B) Apoptosis assay using the Cell Death Detection ELISA^plus kit. Left panel, immortalized Rat1 fibroblasts with different MYC status after 24 hours of 5 μM MYCMI-7 treatment, middle panel and right panels, normal REFs and normal peripheral blood lymphocytes, respectively, after 24 and 48 hours of 5 μM MYCMI-7 treatment. […] Viability was measured by trypan blue exclusion assay. F) Cell growth measured with Cyt62 assay of primary normal human epidermal melanocytes (NHEM) treated for 72 hours with MYCMI-7, G) Viability measured by trypan blue exclusion assay of NHEM after treatment for 72 hours with MYCMI-7.
Flow cytometry: P493-6 cells were synchronized using 1 μg/ml doxycycline. […] Cells were stained with propidium iodide (Sigma) and 1×10^4 cells per treatment were analyzed using a FACScan and CellQuestPro (Becton Dickinson). […]

In series [4] the target is T1, recombinant bHLHZip domain of the MYC protein (Homo sapiens, UniProt P01106).
T1 construct: using the recombinant bHLHZip domain of the MYC protein; 6xHis (N); made in house; host or cells: E. coli BL21 (DE3)
T1 sequence (P01106 368-454 limits assumed): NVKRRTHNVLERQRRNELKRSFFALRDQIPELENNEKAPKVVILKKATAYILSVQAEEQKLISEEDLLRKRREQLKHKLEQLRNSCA
In words: surface plasmon resonance (SPR), MYC bHLHZip. In kind it is binding. Here is the method: FIG. 1: MYCMI-7 (Compound Example 1) inhibits the MYC:MAX interaction in cells, bind MYC in vitro, and blocks MYC function. A) Molecular structure of MYCMI-7. B-E) split Gaussia luciferase (GLuc) assay. MYC or MYCN and MAX Gluc constructs were co-transfected into HeLa cells together with a firefly luciferase vector. 24 hours post transfection cells were treated with compounds, and after another 17-24 hours cells were harvested and both GLuc and firefly luciferase activities were measured. The mean of three different experiments is shown. Treatment with: B) 5 μM of MYCMI-7, 64 μM 10058-F4 or 5 μM JQ1, respectively, C) 6.5 μM MYCMI-7 on cells expressing MYC:MAX GLuc vs. GCN4:GCN4 GLuc, D) 5 μM MYCMI-7 and 5 μM ellipticine. E) 5 μM MYCMI-7 for various time points. F) in situ proximity ligation assay (isPLA). […] MYC:GAL4 was used as negative control in the isPLA assay. G) Quantification of isPLA dots. (H) Co-immunoprecipitation (co-IP) of endogenous MYC and MAX proteins from MCF7 cells after treatment with 5 μM MYCMI-7 at various times. IP=immunoprecipitation; W=western blot. […] J) MYC target gene ODC1 expression after treatment with 5 μM MYCMI-7, quantified by qPCR. […] L) Recombinant MYC bHLHZip protein domain immobilized onto a CM5 chip was subjected to various concentrations of MYCMI-7 and the complex of MYCbHLHZip-MYCMI-7 was measured as response units by SPR. […]

A further series deals with MYC mRNA. In words: MYC mRNA expression by RT-qPCR. It counts as cell-based. Here is the method:
A) Measurement of MYC mRNA expression by RTqPCR after treatment with MYCMI-7 and different topoisomerase inhibitors at indicated concentrations. […] D) Western blot analysis of p53 and p21 expression after exposure to 5 μM MYCMI-7, ellipticine or camptothecin (CPT) in HCT116 cells. E) Western blot analysis of phospho-ATM, total ATM and p53 expression after exposure to indicated concentrations of MYCMI-7 and ellipticine in A375 cells after 3 hrs treatment.
(Quantitative PCR measures a nucleic acid by following its amplification.)

Excerpt for Caco2 cell assay: First, we performed a pharmacokinetic study of the behavior of the molecule in mice.

For `CCN(CC)CC[n+]1ccc2c(C)c3[nH]c4ccccc4c3c(C)c2c1` [MYCMI-7, 2-(5,11-Dimethyl-6H-25-pyrido[4,3-b]carbazol-2-yl)-N,N-diethylethanamine bromide], the “efficiency compared with 10058-F4, JQ1 and cisplatin” value in series [1] is reported as “more efficient”. In addition, in series [1] (Homo sapiens), the 50% growth inhibitory concentration (GI50) (in general, the concentration at which growth is held to half of that of the control) lay in the range of 150 to 1300 nM. Further, the apoptosis result is “not” in series [2] (MYC knockout HO15.19, 5 μM); “induced apoptosis” in series [2] (TGR1 and HOMyc3, 5 μM). Also, the cell cycle effect result in series [3] was “induced G1 arrest”. The cell death result in series [3] is given as “no increase in cell death”. In addition, the efflux result in the series “Caco2 cell assay” is recorded as “strong efflux”. Further, the “binding to recombinant MYC by SPR” value in series [4] was “binds directly to MYC”. Further, the dissociation constant Kd – broadly, the concentration at which binding is half-saturated – in series [4] (SPR, Langmuir 1:1 analysis) is approximately 4000 nM. Besides, in the series with MYC mRNA (5 μM), the “MYC expression (mRNA)” value is recorded as “only minor effect”. For the same compound, the “MYC mRNA expression” value in the series on MYC mRNA (MCF7 cells, various time points) is “not due to reduced MYC mRNA expression”.
